Consider 31 compounds from ChEMBL document CHEMBL1132590, “Aminopyridazines as acetylcholinesterase inhibitors” (J Med Chem, 1999).

For experiment [1], the target named is T1, Acetylcholinesterase (Rattus norvegicus, UniProt P37136).
T1 sequence (P37136 whole entry): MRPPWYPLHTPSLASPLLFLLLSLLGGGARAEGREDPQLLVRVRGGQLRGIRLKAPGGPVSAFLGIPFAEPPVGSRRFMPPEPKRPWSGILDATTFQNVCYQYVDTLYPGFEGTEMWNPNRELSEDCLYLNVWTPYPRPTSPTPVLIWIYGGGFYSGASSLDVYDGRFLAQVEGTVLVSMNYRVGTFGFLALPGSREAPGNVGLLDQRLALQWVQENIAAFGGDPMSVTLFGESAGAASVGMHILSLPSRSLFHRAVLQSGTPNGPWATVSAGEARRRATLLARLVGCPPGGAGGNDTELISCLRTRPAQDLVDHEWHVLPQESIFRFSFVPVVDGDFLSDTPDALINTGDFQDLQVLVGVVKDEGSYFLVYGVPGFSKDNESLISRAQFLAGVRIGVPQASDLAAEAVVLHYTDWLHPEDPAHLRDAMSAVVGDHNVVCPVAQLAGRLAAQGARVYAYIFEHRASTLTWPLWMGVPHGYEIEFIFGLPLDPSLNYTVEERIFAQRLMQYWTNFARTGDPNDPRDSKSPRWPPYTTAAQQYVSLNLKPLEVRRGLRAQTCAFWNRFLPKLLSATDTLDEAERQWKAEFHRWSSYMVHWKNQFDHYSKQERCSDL
Description: In vitro inhibition of acetylcholinesterase in homogenized rat striatum.

Experiment [2] deals with Acetylcholinesterase (Torpedo californica, UniProt P04058).
Description: In vitro inhibition of Torpedo californica acetylcholinesterase.
The next experiment has as its target Cholinesterase (Homo sapiens, UniProt P06276). Put plainly: Inhibitory concentration against Butyrylcholinesterase (BuChE) from human serum.
Experiment [3] is described as follows: Ratio of inhibitory activity of ocmpound towards acetylcholinesterase from human erythrocytes over butyrylcholinesterase from human serum.
Experiment [4] deals with Acetylcholinesterase (Homo sapiens, UniProt P22303). Put plainly: Inhibitory concentration against acetylcholinesterase (AChE) from human erythrocytes.

The IC50 is the concentration that gives 50% inhibition. A lower IC50 goes with greater potency in that assay.

Acetylcholinesterase (Torpedo californica, UniProt P04058), sequence (P04058 whole entry): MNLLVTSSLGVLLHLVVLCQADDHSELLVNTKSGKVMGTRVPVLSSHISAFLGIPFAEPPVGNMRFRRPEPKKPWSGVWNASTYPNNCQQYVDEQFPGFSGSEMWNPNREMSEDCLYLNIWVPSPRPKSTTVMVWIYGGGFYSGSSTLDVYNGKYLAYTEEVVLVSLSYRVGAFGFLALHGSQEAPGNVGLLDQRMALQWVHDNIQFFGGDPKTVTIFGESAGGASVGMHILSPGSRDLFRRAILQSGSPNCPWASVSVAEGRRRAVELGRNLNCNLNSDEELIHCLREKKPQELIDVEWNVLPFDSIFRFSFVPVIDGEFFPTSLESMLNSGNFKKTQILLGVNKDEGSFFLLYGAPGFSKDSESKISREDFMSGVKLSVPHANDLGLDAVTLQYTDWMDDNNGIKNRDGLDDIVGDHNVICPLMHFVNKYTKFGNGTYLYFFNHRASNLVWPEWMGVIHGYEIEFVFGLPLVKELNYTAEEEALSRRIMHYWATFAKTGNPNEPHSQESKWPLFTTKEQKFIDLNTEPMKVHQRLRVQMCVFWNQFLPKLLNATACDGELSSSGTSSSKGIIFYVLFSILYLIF
Acetylcholinesterase (Homo sapiens, UniProt P22303), sequence (P22303 whole entry): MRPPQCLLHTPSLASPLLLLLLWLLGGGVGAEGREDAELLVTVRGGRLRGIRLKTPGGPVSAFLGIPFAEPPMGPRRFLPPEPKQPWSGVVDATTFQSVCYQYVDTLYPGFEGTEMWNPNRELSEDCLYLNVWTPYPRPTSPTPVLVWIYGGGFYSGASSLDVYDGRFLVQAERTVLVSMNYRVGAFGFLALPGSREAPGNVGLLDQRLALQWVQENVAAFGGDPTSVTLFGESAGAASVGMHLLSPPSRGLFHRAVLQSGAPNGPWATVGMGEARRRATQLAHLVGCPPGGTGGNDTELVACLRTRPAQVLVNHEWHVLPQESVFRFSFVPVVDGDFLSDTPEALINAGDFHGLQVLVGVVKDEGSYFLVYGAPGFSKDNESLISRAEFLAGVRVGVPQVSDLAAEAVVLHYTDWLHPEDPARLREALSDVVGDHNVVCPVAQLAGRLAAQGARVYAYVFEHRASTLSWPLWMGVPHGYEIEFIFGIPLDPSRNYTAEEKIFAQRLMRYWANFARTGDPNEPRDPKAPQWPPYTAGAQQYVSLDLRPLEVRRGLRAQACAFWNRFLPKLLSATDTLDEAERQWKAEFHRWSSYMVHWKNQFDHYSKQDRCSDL
Cholinesterase, sequence (P06276 whole entry): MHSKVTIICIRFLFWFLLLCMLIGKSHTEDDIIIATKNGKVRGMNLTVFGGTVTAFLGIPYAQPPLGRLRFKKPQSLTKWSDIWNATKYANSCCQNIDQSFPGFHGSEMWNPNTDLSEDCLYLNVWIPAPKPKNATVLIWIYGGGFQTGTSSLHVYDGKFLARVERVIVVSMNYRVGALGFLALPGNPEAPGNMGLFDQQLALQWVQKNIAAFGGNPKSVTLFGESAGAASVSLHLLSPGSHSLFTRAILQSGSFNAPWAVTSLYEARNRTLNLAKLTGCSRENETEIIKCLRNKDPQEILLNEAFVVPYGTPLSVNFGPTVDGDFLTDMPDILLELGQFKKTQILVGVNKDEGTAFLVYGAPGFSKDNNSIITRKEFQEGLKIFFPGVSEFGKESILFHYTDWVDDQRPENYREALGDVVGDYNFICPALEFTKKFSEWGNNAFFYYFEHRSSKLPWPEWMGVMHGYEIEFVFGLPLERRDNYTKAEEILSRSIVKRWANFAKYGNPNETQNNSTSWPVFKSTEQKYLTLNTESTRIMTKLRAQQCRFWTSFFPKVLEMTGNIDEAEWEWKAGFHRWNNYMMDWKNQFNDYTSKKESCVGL

At Acetylcholinesterase [1], `c1ccc(-c2ncc(NCCN3CCCCC3)nn2)cc1` yielded an IC50 of 57 µM. Compound `c1ccc(-c2ccc(NCCCN3CCc4ccccc4C3)nn2)cc1` had an IC50 against Acetylcholinesterase [2] of 35 µM.

Regarding `CCN1CCCC1CNc1ccc(-c2ccccc2)nn1` (configuration not stated), inhibition against Acetylcholinesterase [2] was half-maximal at 62 µM (IC50). `Cc1cc(-c2ccc(Cl)cc2)nnc1NCCN1CCCCC1`: at Acetylcholinesterase [1], it took 1.3 µM to reach half-maximal inhibition (IC50). The same measure, in the same setting: the result for `Cc1cc(-c2ccccc2)nnc1NCCN1CCCCC1` reads 5.4 µM. `CN(CCNc1ccc(-c2ccccc2)nn1)Cc1ccccc1` showed an IC50 on Acetylcholinesterase [2] of 170 µM. The same measure, in the same setting: then `c1ccc(-c2ccc(NCCCN3CCOCC3)nn2)cc1`, with 410 µM. The compound `c1ccc(-c2ccc(NCCN3CCCCC3)nc2)cc1` had an IC50 at Acetylcholinesterase [1] of 70 µM. On the same count and under the same terms, then `Cc1cc(-c2ccc3c(c2)OCO3)nnc1NCCN1CCCCC1`, with 1 µM; and `c1ccc(C2=NNC(NCCN3CCCCC3)=NC2)cc1`, with 47 µM. `c1ccc(-c2ccc(NCCN3CCOCC3)nn2)cc1`: the IC50 at Acetylcholinesterase [1] is over 1000 µM; against Acetylcholinesterase [2], 800 µM.

On Acetylcholinesterase [2], `c1ccc(CN2CCC(Nc3ccc(-c4ccccc4)nn3)CC2)cc1` returned an IC50 of 65 µM. Consider `c1ccc(-c2ccc(NCCN3CCCCC3)nn2)cc1`, for which the IC50 at Acetylcholinesterase [1] turned out to be 13 µM; against Acetylcholinesterase [2], 71 µM. Turning to `c1ccc(-c2cc(-c3ccccc3)c(NCCN3CCOCC3)nn2)cc1`, on Acetylcholinesterase [1], the IC50 was 260 µM. On the same count and under the same terms, the result for `FC(F)(F)c1cc(-c2ccccc2)nnc1NCCN1CCOCC1` reads 740 µM; that for `c1ccc(-c2cnc(NCCN3CCCCC3)nn2)cc1`, 60 µM; that for `c1ccc(-c2nnc(NCCN3CCCCC3)s2)cc1`, 54 µM.

With `Nc1cc(-c2ccccc2)nnc1NCCN1CCOCC1`, the concentration for half-maximal inhibition (IC50) against Acetylcholinesterase [1] was found to be 270 µM. `c1ccc(-c2ccc(NCCCCCN3CCc4ccccc4C3)nn2)cc1`: the IC50 on Cholinesterase was 0.31 µM; on Acetylcholinesterase [4], 47 µM; at Acetylcholinesterase [2], 10 µM. Moreover, the Ratio in experiment [3] stood at 0.0066.

With `c1ccc(-c2cnc(NCCN3CCCCC3)nc2)cc1`, the IC50 on Acetylcholinesterase [1] was over 100 µM. The same measure, in the same setting: then `N#Cc1cc(-c2ccccc2)nnc1NCCN1CCOCC1`, with over 100 µM. `c1ccc(-c2ccc(NCCCCN3CCc4ccccc4C3)nn2)cc1` registered a 50% inhibitory concentration (IC50) against Acetylcholinesterase [2] of 15 µM.

Compound `c1ccc(-c2ccc(NCCN3CCc4ccccc4C3)nn2)cc1` had an IC50 against Acetylcholinesterase [2] of 83 µM. `Cc1cc(-c2ccc(Cl)cc2)nnc1NCCN1CCOCC1` registered an IC50 against Acetylcholinesterase [1] of 34 µM. At Acetylcholinesterase [2], `CN(CCCCNc1ccc(-c2ccccc2)nn1)Cc1ccccc1` displayed an IC50 of 11 µM. In the case of `CN(CCCCCNc1ccc(-c2ccccc2)nn1)Cc1ccccc1`, the IC50 against Cholinesterase was determined as 0.34 µM; at Acetylcholinesterase [4], 0.93 µM; against Acetylcholinesterase [2], 0.74 µM. Moreover, the Ratio in experiment [3] is 0.36.

In the case of `CN(CCCNc1ccc(-c2ccccc2)nn1)Cc1ccccc1`, at Acetylcholinesterase [2], it took 13 µM to reach half-maximal inhibition (IC50). Turning to `c1ccc(CN2CCC(CCNc3ccc(-c4ccccc4)nn3)CC2)cc1`, the concentration for half-maximal inhibition (IC50) at Cholinesterase was found to be 0.7 µM; against Acetylcholinesterase [4] it was 0.14 µM; against Acetylcholinesterase [2] it was 0.12 µM. The Ratio in experiment [3] was 5. As to `Cc1cc(-c2ccccc2)nnc1NCCN1CCOCC1`, it took 85 µM to reach half-maximal inhibition against Acetylcholinesterase [1] (IC50). For `c1ccc(CN2CCC(CNc3ccc(-c4ccccc4)nn3)CC2)cc1`, the IC50 against Acetylcholinesterase [2] came to 5.6 µM. As to `OCc1cc(-c2ccccc2)nnc1NCCN1CCOCC1`, inhibition against Acetylcholinesterase [1] was half-maximal at 440 µM (IC50).
